Test results taken from US11076595B2, “1-(n,n-disubstituted carbamoyl) 4-(substituted sulfonyl)triazolin-5-one derivative, 4-(n,n-disubstituted carbamoyl) 1-(substituted sulfonyl)triazolin-5-one derivative, and herbicide containing said derivative as active ingredient” (HOKKO CHEMICAL INDUSTRY CO., LTD., priority 2017, dated 2021).

What was measured:
Type in all cases: in vivo
Scirpus juncoides [1] = assay: Test Example 2: herbicidal effect test by treatment during growing period in paddy field; settings: treatment 7 days after sowing, 120 g/10a, evaluated 14 days after treatment
Summary of the method: (§1)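 Paddy soil in flooded pots (~3 cm water), 30 seeds per species sown 0–1 cm deep, greenhouse. Emulsifiable concentrate diluted in water and dripped into the water 7 days after sowing at 120 g a.i. per 10 are. Suppression (%) from dry weight vs untreated, 14 days post-treatment, two replicates.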

Lindernia pyxidaria [2] = assay: as above; settings: treatment 7 days after sowing, 120 g/10a, evaluated 14 days after treatment
Summary of the method: as §1

Echinochloa crus-galli [3] = assay: as above; settings: treatment 7 days after sowing, 120 g/10a, evaluated 14 days after treatment
Summary of the method: as §1

Monochoria vaginalis [4] = assay: as above; settings: treatment 7 days after sowing, 120 g/10a, evaluated 14 days after treatment
Summary of the method: as §1

Chenopodium album [5] = assay: Test Example 3: herbicidal effect test by soil treatment in upland field; settings: upland field soil treatment 1 day after sowing; 120 g/10a; evaluated 14 days after treatment
Summary of the method: (§2)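 Pots of alluvial field soil sown with 20 seeds per weed species; one day later emulsifiable concentrate diluted in water and sprayed on soil surface at 100 L per 10 are, 120 g active ingredient per 10 are. Suppression rate (%) from dry weight versus untreated plots after 14 days, two replicates.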

Echinochloa crus-galli [6] = assay: as above; settings: upland field soil treatment 1 day after sowing; 120 g/10a; evaluated 14 days after treatment
Summary of the method: as §2

Amaranthus viridis [7] = assay: as above; settings: upland field soil treatment 1 day after sowing; 120 g/10a; evaluated 14 days after treatment
Summary of the method: as §2

crabgrass [8] = assay: as above; settings: upland field soil treatment 1 day after sowing; 120 g/10a; evaluated 14 days after treatment
Summary of the method: as §2

Scirpus juncoides [9] = assay: Test Example 1: herbicidal effect test by soil treatment in paddy field; settings: 120 g/10a, paddy soil treatment just after sowing, 14 days after treatment
Summary of the method: (§3)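 In a greenhouse, puddled paddy soil in Wagner pots held ~3 cm flooding over freshly sown seeds. Treatment was dropwise application of the diluted formulation, 120 g a.i. per 10 are, with two replications; suppression was scored from dry weights after 14 days.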

Lindernia pyxidaria [10] = assay: as above; settings: 120 g/10a, paddy soil treatment just after sowing, 14 days after treatment
Summary of the method: as §3

Echinochloa crus-galli [11] = assay: as above; settings: 120 g/10a, paddy soil treatment just after sowing, 14 days after treatment
Summary of the method: as §3

Monochoria vaginalis [12] = assay: as above; settings: 120 g/10a, paddy soil treatment just after sowing, 14 days after treatment
Summary of the method: as §3

Chenopodium album [13] = assay: Test Example 4: herbicidal effect test by foliage treatment in upland field; settings: upland field foliage treatment 7 days after sowing; 120 g/10a; evaluated 14 days after treatment
Summary of the method: (§4)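 In this upland pot test, each species is sown at 20 seeds per pot. Spraying follows one week later at a dose of 120 g active ingredient per 10 are. Weed suppression, calculated from average dry weights, is determined 14 days afterward.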

Echinochloa crus-galli [14] = assay: as above; settings: upland field foliage treatment 7 days after sowing; 120 g/10a; evaluated 14 days after treatment
Summary of the method: as §4

Amaranthus viridis [15] = assay: as above; settings: upland field foliage treatment 7 days after sowing; 120 g/10a; evaluated 14 days after treatment
Summary of the method: as §4

crabgrass [16] = assay: as above; settings: upland field foliage treatment 7 days after sowing; 120 g/10a; evaluated 14 days after treatment
Summary of the method: as §4

Row | SMILES | weed suppression rate, Scirpus juncoides (Scirpus juncoides [1]) | weed suppression rate, Lindemia pyxidaria (Lindernia pyxidaria [2]) | weed suppression rate, Echinochloa crus-galli (Echinochloa crus-galli [3]) | weed suppression rate, Monochoria vaginalis (Monochoria vaginalis [4]) | herbicidal effect (weed suppression rate), Chenopodium album (Chenopodium album [5]) | herbicidal effect (weed suppression rate), Echinochloa crus-galli (Echinochloa crus-galli [6]) | herbicidal effect (weed suppression rate), Amaranthus viridis (Amaranthus viridis [7]) | herbicidal effect (weed suppression rate), Crabgrass (crabgrass [8]) | weed suppression rate, Scirpus juncoides (Scirpus juncoides [9]) | weed suppression rate, Lindemia pyxidaria (Lindernia pyxidaria [10]) | weed suppression rate, Echinochloa crus-galli (Echinochloa crus-galli [11]) | weed suppression rate, Monochoria vaginalis (Monochoria vaginalis [12]) | herbicidal effect (weed suppression rate), Chenopodium album (Chenopodium album [13]) | herbicidal effect (weed suppression rate), Echinochloa crus-galli (Echinochloa crus-galli [14]) | herbicidal effect (weed suppression rate), Amaranthus viridis (Amaranthus viridis [15]) | herbicidal effect (weed suppression rate), Crabgrass (crabgrass [16])
1 | CC(C)N(C(=O)n1ncn(S(=O)(=O)C2CCCCC2)c1=O)c1ccccc1 [Compound 1-295] | 90% | 80% | 90% | 80% | 80% | 80% | 90% | 90% | 90% | 80% | 90% | 80% | 80% | 80% | 90% | 90%
2 | CC(C)N(C(=O)n1ncn(S(=O)(=O)C2CCCCC2)c1=O)c1ccc(F)cc1 [Compound 1-298] | 90% | 90% | 90% | 90% | 80% | 80% | 90% | 90% | 90% | 90% | 90% | 80% | 80% | 80% | 90% | 90%
3 | CC(C)N(C(=O)n1ncn(S(=O)(=O)C2CCCCC2)c1=O)c1cccc(F)c1F [Compound 1-305] | 100% | 100% | 100% | 100% | 80% | 100% | 80% | 100% | 100% | 100% | 100% | 100% | 80% | 90% | 80% | 100%
4 | CC(C)N(C(=O)n1ncn(S(=O)(=O)C2CCCCC2)c1=O)c1c(F)cccc1F [Compound 1-308] | 100% | 90% | 100% | 100% | 40% | 90% | 40% | 90% | 100% | 100% | 100% | 80% | 40% | 90% | 60% | 90%
5 | CC(C)N(C(=O)n1ncn(S(=O)(=O)C2CCCCC2)c1=O)c1ccc(F)cc1Cl [Compound 1-313] | 90% | 80% | 90% | 80% | 80% | 80% | 90% | 90% | 90% | 80% | 90% | 80% | 80% | 80% | 90% | 90%
6 | CC(C)N(C(=O)n1ncn(S(=O)(=O)C2CCCCC2)c1=O)c1ccc(Cl)cc1Br [Compound 1-318] | 80% | 80% | 100% | 80% | 50% | 100% | 50% | 100% | 100% | 90% | 100% | 90% | 60% | 80% | 60% | 80%
7 | Cc1cc(C)c(S(=O)(=O)n2cnn(C(=O)N(c3ccc(F)c(F)c3F)C(C)C)c2=O)c(C)c1 [Compound 1-899] | 100% | 80% | 100% | 100% | 60% | 80% | 90% | 80% | 100% | 100% | 100% | 90% | 80% | 100% | 100% | 100%
8 | CC(C)N(C(=O)n1ncn(S(=O)(=O)N(C)C)c1=O)c1ccc(F)cc1 [Compound 1-1095] | 90% | 80% | 90% | 80% | 80% | 80% | 90% | 90% | 90% | 80% | 90% | 80% | 80% | 80% | 90% | 90%
9 | CC(C)N(C(=O)n1ncn(S(=O)(=O)N(C)C)c1=O)c1ccc(F)cc1F [Compound 1-1103] | 90% | 80% | 90% | 80% | 60% | 100% | 60% | 100% | 90% | 80% | 90% | 80% | 80% | 80% | 90% | 90%
